Square brackets hold non-standard residues; d marks the D form. Peptide text beside a SMILES is read from it. * marks the point of attachment. pNA = O=[N+]([O-])c1ccc(N*)cc1; Tos = Cc1ccc(S(=O)(=O)*)cc1; Pip = O=C(O)[C@@H]1CCCCN1; Nle = CCCC[C@H](N)C(=O)O; Orn = NCCC[C@H](N)C(=O)O

In general, Km refers to the substrate concentration at which the rate is half of its maximum. By kcat is commonly meant the number of substrate molecules converted per active site and unit of time at saturation.

In the first assay the target is T1, factor Xa (Homo sapiens, UniProt P00742).
T1 construct: human factor Xa samples; gift of Dr. T. Lindhout (University of Limburg, Maastricht)
T1 sequence (P00742 41-179 limits assumed): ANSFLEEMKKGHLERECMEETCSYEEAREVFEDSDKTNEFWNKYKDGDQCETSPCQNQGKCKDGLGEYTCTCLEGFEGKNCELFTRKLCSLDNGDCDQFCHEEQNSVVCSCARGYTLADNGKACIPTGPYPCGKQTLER
T1 sequence (P00742 235-488 limits assumed): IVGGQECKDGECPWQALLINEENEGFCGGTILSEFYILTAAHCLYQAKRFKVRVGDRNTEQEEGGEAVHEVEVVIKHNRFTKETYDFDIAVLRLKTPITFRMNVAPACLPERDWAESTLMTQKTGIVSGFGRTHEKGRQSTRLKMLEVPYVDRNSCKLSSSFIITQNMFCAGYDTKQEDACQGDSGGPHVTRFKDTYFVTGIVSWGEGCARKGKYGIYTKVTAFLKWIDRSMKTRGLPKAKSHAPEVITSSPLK
Nature of the assay: Kinetics of hydrolysis of substrates by human factor Xa in buffer A at 37° C. (Example 2, Table 2). It counts as biochemical. More on the design: key to kcat: NH: not hydrolyzed by factor Xa. How it is done: (§1) Kinetic parameters: The hydrolysis experiments were run in buffer A at 37° C. The liberation of p-nitroaniline was monitored at 405 nm in a dual wavelength (405-546 nm) spectrophotometer made in our workshop, using a personal computer for data recording. In a polystyrene microcuvette (total volume 500 μL), buffer A and substrate solution were added to obtain a final substrate concentration between 1 to 2000 μM. After 5 min of incubation at 37° C., enzyme solution was added to achieve a final concentration between 0.5 to 100 nM. The measurement was carried out at 37° C. in a thermostated cuvette-holder. The Michaelis constant (Km) and the catalytic constant (kcat) were obtained by measuring initial reaction velocities at different substrate concentrations. The data obtained were fitted by linear regression on the Michaelis-Menten equation.
(§2) Kinetic parameters: In a preliminary experiment, the substrate was hydrolyzed under the following conditions: enzyme concentration: 10 to 20 nM, substrate concentration: 200 μM in buffer A to get an impression of the initial velocity. […] The results are given in table 1 and 2 for thrombin and factor Xa respectively. The Km and kcat for each substrate were determined from the initial velocities measured for at least six substrate concentrations in the concentration range as given. The enzyme concentration used gives a good signal to noise ratio. The data given are obtained from one or two experiments. The data from table 1 and 2 were only used as the first selection criterion to get a rough impression of the hydrolysis behaviour. Notwithstanding the preliminary character of the measurement it was helpful in the design of the substrates of our interest.
Turning to `Cc1ccc(S(=O)(=O)NCC(=O)N[C@@H](CCCNC(=N)N)C(=O)Nc2ccc([N+](=O)[O-])cc2)cc1.Cl` [pTS-Gly-Arg-pNA.HCl] (Tos-Gly-Arg-pNA), the Km came out at 233 µM, the kcat was determined as 9.26 s⁻¹ and the “kcat /Km” value was determined as 39800 M/s.

Regarding `COc1ccc(COC(=O)NCC(=O)N[C@@H](CCCNC(=N)N)C(=O)Nc2ccc([N+](=O)[O-])cc2)cc1.Cl` [MZ-Gly-Arg-pNA.HCl], the Km was found to be 4700 µM, the kcat came out at 55.0 s⁻¹ and the “kcat /Km” value is 11700 M/s.

For `Cl.N[C@H](Cc1ccccc1)C(=O)N1CCCC[C@H]1C(=O)N[C@@H](CCC(=O)O)C(=O)Nc1ccc([N+](=O)[O-])cc1` [HCl.H-D-Phe-Pip-Glu-pNA] (H-[dF]-[Pip]-Glu-pNA), the kcat entry was “NH”.

`COC(=O)C(C)C(=O)NCC(=O)NC(CCCNC(=N)N)C(=O)Nc1ccc([N+](=O)[O-])cc1.Cl` (mixture of isomers) [MMZ-Gly-Arg-pNA.HCl]: the Km amounted to 6400 µM, the kcat worked out at 43.9 s⁻¹ and the “kcat /Km” value was 6860 M/s.

Turning to `COC(=O)C(C)(C)C(=O)NCC(=O)N[C@@H](CCCNC(=N)N)C(=O)Nc1ccc([N+](=O)[O-])cc1.Cl` [DMMZ-Gly-Arg-pNA.HCl], the Michaelis constant (Km) was determined as 2840 µM, the kcat was 13.6 s⁻¹ and the “kcat /Km” value is 4790 M/s.

A further assay concerns the target T2, human α-thrombin (Homo sapiens, UniProt P00734).
T2 construct: Pure human α-thrombin; gift of Dr. T. Lindhout (University of Limburg, Maastricht)
Description: Kinetics of hydrolysis of substrates by human α-thrombin in buffer A at 37° C. (Example 2, Table 1). More on the design: key to kcat: NH: not hydrolyzed by thrombin. It counts as biochemical. The method, then: as §1, §2
In the case of `Cc1ccc(S(=O)(=O)NCC(=O)N[C@@H](CCCNC(=N)N)C(=O)Nc2ccc([N+](=O)[O-])cc2)cc1.Cl` [pTS-Gly-Arg-pNA.HCl] (Tos-Gly-Arg-pNA), the kcat result is listed as “NH”.

Regarding `COc1ccc(COC(=O)NCC(=O)N[C@@H](CCCNC(=N)N)C(=O)Nc2ccc([N+](=O)[O-])cc2)cc1.Cl` [MZ-Gly-Arg-pNA.HCl], the Michaelis-Menten constant (Km) was found to be 2540 µM, the kcat was 12.3 s⁻¹ and the “kcat /Km” value turned out to be 4850 M/s.

For `Cl.N[C@H](Cc1ccccc1)C(=O)N1CCCC[C@H]1C(=O)N[C@@H](CCC(=O)O)C(=O)Nc1ccc([N+](=O)[O-])cc1` [HCl.H-D-Phe-Pip-Glu-pNA] (H-[dF]-[Pip]-Glu-pNA), the Km worked out at 474 µM, the kcat was 0.35 s⁻¹ and the “kcat /Km” value was 739 M/s.

Take `COC(=O)C(C)C(=O)NCC(=O)NC(CCCNC(=N)N)C(=O)Nc1ccc([N+](=O)[O-])cc1.Cl` (mixture of isomers) [MMZ-Gly-Arg-pNA.HCl]: the Km was 1740 µM, the kcat was 6.60 s⁻¹ and the “kcat /Km” value was 3800 M/s.

On to `COC(=O)C(C)(C)C(=O)NCC(=O)N[C@@H](CCCNC(=N)N)C(=O)Nc1ccc([N+](=O)[O-])cc1.Cl` [DMMZ-Gly-Arg-pNA.HCl], for which the Km amounted to 902 µM, the kcat amounted to 6.44 s⁻¹ and the “kcat /Km” value is 7140 M/s.

`C[C@@H](N)C(=O)N[C@@H](CCCNC(=N)N)C(=O)Nc1ccc([N+](=O)[O-])cc1.Cl.Cl` [2HCl.H-D-Ala-Arg-pNA] (H-[dA]-Arg-pNA): the Michaelis constant (Km) was 4080 µM, the kcat came to 0.096 s⁻¹ and the “kcat /Km” value is 23.5 M/s.

For `Cl.Cl.NCC(=O)N[C@@H](CCCN=C(N)N)C(=O)Nc1ccc([N+](=O)[O-])cc1` [2HCl.H-Gly-Arg-pNA] (H-Gly-Arg-pNA), the Km turned out to be 2280 µM, the kcat is 0.107 s⁻¹ and the “kcat /Km” value came to 46.9 M/s.

Consider `Cl.Cl.NCCC[C@H](NC(=O)[C@@H]1CCCCN1C(=O)[C@H](N)Cc1ccccc1)C(=O)Nc1ccc([N+](=O)[O-])cc1` [2HCl.H-D-Phe-Pip-Orn-pNA] (H-[dF]-[Pip]-[Orn]-pNA), for which the Km came to 420 µM, the kcat was 4.64 s⁻¹ and the “kcat /Km” value is 11100 M/s.

For `CC(C)[C@@H](N)C(=O)N[C@@H](CCCNC(=N)N)C(=O)Nc1ccc([N+](=O)[O-])cc1.Cl.Cl` [2HCl.H-D-Val-Arg-pNA] (H-[dV]-Arg-pNA), the Km came to 4250 µM, the kcat was determined as 0.28 s⁻¹ and the “kcat /Km” value came to 65.9 M/s.

On to `C[C@H](N)C(=O)N[C@@H](CCCNC(=N)N)C(=O)Nc1ccc([N+](=O)[O-])cc1.Cl.Cl` [2HCl.H-Ala-Arg-pNA] (H-Ala-Arg-pNA), for which the Km was determined as 1140 µM, the kcat worked out at 0.074 s⁻¹ and the “kcat /Km” value was found to be 64.9 M/s.

With `CCCC[C@H](NC(=O)[C@@H]1CCCN1C(=O)[C@H](N)Cc1ccccc1)C(=O)Nc1ccc([N+](=O)[O-])cc1.Cl` [HCl.H-D-Phe-Pro-Nle-pNA] (H-[dF]-Pro-[Nle]-pNA), the Km was 87.9 µM, the catalytic constant (kcat) came to 6.66 s⁻¹ and the “kcat /Km” value was determined as 75400 M/s.

The record behind these values is US6207399A, “Methods of determining endogenous thrombin potential (ETP) and thrombin substrates for use in said methods” (Hemker; Hendrik Coenraad, priority 1995, dated 2001).
